According to ChEMBL document CHEMBL1221322, “Design, synthesis, and biological evaluation of new monoamine reuptake inhibitors with potential therapeutic utility in depression and pain” (Bioorg Med Chem Lett, 2010):

Key:
physchem = details: octanol/water
in vitro [1] = details: human, Caco-2
in vitro [2] = details: human, Caco-2; remark: listed apart in the source
[3] = Oral bioavailability in rat; assay type: ADME, organism-based; details: in vivo
[4] = Volume of distribution at steady state in rat; assay type: ADME, organism-based; details: in vivo, read-out: Vdss

| SMILES | logD (physchem) | Papp B→A (in vitro [1]) | Papp A→B (in vitro [2]) | bioavailability [3] | Vd [4] |
| --- | --- | --- | --- | --- | --- |
| CCCC1(C(=O)c2ccc3[nH]ncc3c2)CCCN1 (stereo not drawn) | 1 | 16 ×10⁻⁶ cm/s | 29 ×10⁻⁶ cm/s |  |  |
| CC(C)CC1(C(=O)c2ccc3[nH]ncc3c2)CCCN1 (stereo not drawn) | 1 | 20 ×10⁻⁶ cm/s | 32 ×10⁻⁶ cm/s |  |  |
| CC(C)(C)CCC1(C(=O)c2ccc3[nH]ncc3c2)CCCN1 (stereo not drawn) | 2.03 | 12 ×10⁻⁶ cm/s | 20 ×10⁻⁶ cm/s |  |  |
| CCCC1(C(=O)c2ccc3[nH]ccc3c2)CCCN1 (stereo not drawn) | 1.45 | 10 ×10⁻⁶ cm/s | 41 ×10⁻⁶ cm/s |  |  |
| O=C(c1ccc2[nH]ccc2c1)C1(Cc2ccccc2)CCNC1 (stereo not drawn) |  | 19 ×10⁻⁶ cm/s | 17 ×10⁻⁶ cm/s |  |  |
| CC(C)OCC1(C(=O)c2ccc(N)c(Cl)c2)CCCN1 (single isomer, unassigned; (+)) | 0.84 | 18 ×10⁻⁶ cm/s | 30 ×10⁻⁶ cm/s |  |  |
| CC(C)(C)CCC1(C(=O)c2cc(F)c3[nH]ccc3c2)CCNC1 (single isomer, unassigned; (+)) |  |  |  | 5% | 14 L/kg |
| CC(C)(C)CCC1(C(=O)c2ccc(Cl)c(Cl)c2)CCNC1 (single isomer, unassigned; (+)) |  |  |  | 57% | 14.3 L/kg |
| CNCC[C@H](Oc1cccc2ccccc12)c1cccs1 [DULOXETINE] |  |  |  | 22% | 20.9 L/kg |
